Laboratory results: ChEMBL document CHEMBL5608188, “Discovery of N'-benzyl-3-chloro-N-((1S,3R,4R)-3-((dimethylamino)methyl)-4-hydroxy-4-(3-methoxyphenyl)cyclohexyl)benzenesulfonamide as a novel selective KOR ligand” (Eur J Med Chem, 2024)
Active and inactive are the calls of the source. The calls are words filed in the database; no cut-off is given here.

What was measured:
[1] = target: T1, Kappa-type opioid receptor (Homo sapiens, UniProt P41145); experiment: Displacement of [3H] U69593 from human kappa-opioid receptor extracted from CHO cell membrane at 0.1 uM by liquid scintillation counting analysis relative to control; format: cell membranes
T1 sequence (P41145 whole entry): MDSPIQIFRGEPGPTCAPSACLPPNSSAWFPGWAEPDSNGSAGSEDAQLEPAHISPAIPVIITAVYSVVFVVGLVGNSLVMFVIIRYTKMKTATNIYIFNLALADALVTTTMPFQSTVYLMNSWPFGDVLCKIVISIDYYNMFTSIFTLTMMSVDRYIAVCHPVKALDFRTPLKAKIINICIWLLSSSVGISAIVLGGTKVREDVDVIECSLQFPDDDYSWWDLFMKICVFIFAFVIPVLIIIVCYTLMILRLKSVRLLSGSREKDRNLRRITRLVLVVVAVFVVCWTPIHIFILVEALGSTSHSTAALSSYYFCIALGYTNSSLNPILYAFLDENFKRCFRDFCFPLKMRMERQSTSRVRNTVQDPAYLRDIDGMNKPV

[2] = target: Mu-type opioid receptor (Rattus norvegicus) (UniProt P33535); experiment: Displacement of [3H] DAMGO from rat mu-opioid receptor extracted from CHO cell membrane at 0.1 uM by liquid scintillation counting analysis relative to control; format: cell membranes
Mu-type opioid receptor (Rattus norvegicus), sequence (P33535 whole entry): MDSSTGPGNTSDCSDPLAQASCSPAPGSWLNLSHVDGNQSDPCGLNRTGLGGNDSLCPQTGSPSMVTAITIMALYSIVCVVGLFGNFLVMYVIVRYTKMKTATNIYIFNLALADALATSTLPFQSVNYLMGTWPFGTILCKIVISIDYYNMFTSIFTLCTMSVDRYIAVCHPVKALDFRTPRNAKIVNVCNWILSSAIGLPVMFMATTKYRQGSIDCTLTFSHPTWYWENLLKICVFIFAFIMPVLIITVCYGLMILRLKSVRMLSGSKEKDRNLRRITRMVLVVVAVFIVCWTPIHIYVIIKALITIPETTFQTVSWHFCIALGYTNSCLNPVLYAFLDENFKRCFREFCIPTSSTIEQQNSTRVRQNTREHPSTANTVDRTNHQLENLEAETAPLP

[3] = target: Delta-type opioid receptor (Rattus norvegicus) (UniProt P33533); experiment: Displacement of [3H] DPDPE from rat delta-opioid receptor extracted from CHO cell membrane at 0.1 uM by liquid scintillation counting analysis relative to control; format: cell membranes
Delta-type opioid receptor (Rattus norvegicus), sequence (P33533 whole entry): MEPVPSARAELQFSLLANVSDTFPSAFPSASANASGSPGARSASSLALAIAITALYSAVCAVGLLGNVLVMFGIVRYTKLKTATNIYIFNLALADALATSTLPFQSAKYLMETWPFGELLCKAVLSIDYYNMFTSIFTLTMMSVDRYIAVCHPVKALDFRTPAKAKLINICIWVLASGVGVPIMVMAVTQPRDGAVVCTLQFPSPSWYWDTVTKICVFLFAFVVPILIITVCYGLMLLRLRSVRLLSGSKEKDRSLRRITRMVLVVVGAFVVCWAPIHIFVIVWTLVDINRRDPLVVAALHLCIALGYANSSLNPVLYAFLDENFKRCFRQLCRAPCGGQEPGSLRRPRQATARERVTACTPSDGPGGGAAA

[4] = target: T1, Kappa-type opioid receptor; experiment: Binding affinity to human kappa-opioid receptor extracted from CHO cell membrane assessed as inhibition constant incubated for 60 mins in presence of [3H]U69593 by radioligand binding assay; format: cell membranes
[5] = Metabolic stability in mouse liver assessed as intrinsic clearance at 1 uM measured upto 60 mins in presence of NADPH by LC-MS/MS analysis; format: ADME, tissue-based; conditions: read-out: CLH
[6] = Metabolic stability in mouse liver microsomes assessed as half life at 1 uM measured upto 60 mins in presence of NADPH by LC-MS/MS analysis; format: ADME, Microsome
[7] = Metabolic stability in mouse liver microsomes assessed as intrinsic clearance at 1 uM measured upto 60 mins in presence of NADPH by LC-MS/MS analysis; format: ADME, Microsome; conditions: read-out: CLH
[8] = target: Mu-type opioid receptor (Rattus norvegicus) (UniProt P33535); experiment: (§1) Displacement of [3H] DAMGO from rat mu-opioid receptor extracted from CHO cell membrane assessed as inhibition constant by liquid scintillation counting analysis; format: cell membranes
[9] = target: T1, Kappa-type opioid receptor; experiment: Displacement of [3H] U69593 from human kappa-opioid receptor extracted from CHO cell membrane assessed as inhibition constant by liquid scintillation counting analysis; format: cell membranes
[10] = target: Delta-type opioid receptor (Rattus norvegicus, UniProt P33533); experiment: (§2) Displacement of [3H] DPDPE from rat delta-opioid receptor extracted from CHO cell membrane assessed as inhibition constant by liquid scintillation counting analysis; format: cell membranes
Delta-type opioid receptor, sequence (P33533 whole entry): as above

Mu-type opioid receptor = Mu-type opioid receptor (Rattus norvegicus, UniProt P33535); experiment: as §1; format: cell membranes
Mu-type opioid receptor, sequence (P33535 whole entry): as the sequence (P33535 whole entry) above

[11] = Drug uptake in mouse plasma; format: ADME, cell-free
[12] = AUC (0 to t) in ICR mouse at 5 mg/kg, po measured after 24 hrs; format: ADME, organism-based; conditions: in vivo
Mus musculus [13] = experiment: Antinociceptive activity in acetic acid induced female Kunming mouse model assessed as reduction in number of torsions preadministered with nor-BNI for 24 hrs followed by compound administration for 30 mins and measured after 15 mins of acetic acid administration by abdominal contraction test; format: functional, organism-based; conditions: time 45.0 min
[14] = Cmax in ICR mouse at 2 mg/kg, iv measured after 24 hrs; format: ADME, organism-based; conditions: in vivo
[15] = Half-life in ICR mouse at 2 mg/kg, iv measured after 24 hrs; format: ADME, organism-based; conditions: in vivo
[16] = Cmax in ICR mouse at 5 mg/kg, po measured after 24 hrs; format: ADME, organism-based; conditions: in vivo
[17] = Metabolic stability in mouse liver microsomes assessed as parent compound remaining at 1 uM measured after 15 min in presence of NADPH by LC-MS/MS analysis; format: ADME, Microsome; conditions: read-out: Stability
[18] = Metabolic stability in mouse liver microsomes assessed as parent compound remaining at 1 uM measured after 5 min in presence of NADPH by LC-MS/MS analysis; format: ADME, Microsome; conditions: read-out: Stability
[19] = AUC (0 to t) in ICR mouse at 2 mg/kg, iv measured after 24 hrs; format: ADME, organism-based; conditions: in vivo
[20] = Clearance in ICR mouse at 2 mg/kg, iv measured after 24 hrs; format: ADME, organism-based; conditions: in vivo
[21] = target: Delta-type opioid receptor (Rattus norvegicus) (UniProt P33533); experiment: as §2; format: cell membranes
[22] = Metabolic stability in mouse liver microsomes assessed as parent compound remaining at 1 uM measured after 30 min in presence of NADPH by LC-MS/MS analysis; format: ADME, Microsome; conditions: read-out: Stability
[23] = Metabolic stability in mouse liver microsomes assessed as parent compound remaining at 1 uM measured after 60 min in presence of NADPH by LC-MS/MS analysis; format: ADME, Microsome; conditions: read-out: Stability
[24] = AUC (0 to infinity) in ICR mouse at 2 mg/kg, iv measured after 24 hrs; format: ADME, organism-based; conditions: in vivo
[25] = Half-life in ICR mouse at 5 mg/kg, po measured after 24 hrs; format: ADME, organism-based; conditions: in vivo
[26] = Oral bioavailability in ICR mouse at 5 mg/kg measured after 24 hrs; format: ADME, organism-based; conditions: in vivo
[27] = Tmax in ICR mouse at 5 mg/kg, po measured after 24 hrs; format: ADME, organism-based; conditions: in vivo
[28] = Toxicity in male Kunming mouse assessed as effect on sedation at 1.3 to 10 mg/kg, IP administered for 30 mins and measured after 1 hrs by open field test; format: organism-based; conditions: in vivo, 1.5 h, dose 1.3-10 mg/kg, time 90 min
[29] = Tmax in ICR mouse at 2 mg/kg, iv measured after 24 hrs; format: ADME, organism-based; conditions: in vivo
Mus musculus [30] = experiment: Antinociceptive activity in acetic acid induced female Kunming mouse model assessed as reduction in number of torsions preadministered for 30 mins followed by acetic acid administration and measured after 15 mins by abdominal contraction test; format: functional; conditions: 0.75 h, time 45 min
[31] = AUC (0 to infinity) in ICR mouse at 5 mg/kg, po measured after 24 hrs; format: ADME, organism-based; conditions: in vivo

## COc1cccc(C2(OC(=O)c3ccccc3)CCC(N(C)S(=O)(=O)Cc3cccc(Cl)c3)CC2CN(C)C)c1 (centres undefined)
[1]
  inhibition: 16.6%
[2]
  inhibition: 0%
[3]
  inhibition: 0%

## CN(C)C[C@@H]1CN(CCc2cccc(C(F)(F)F)c2)CC[C@@]1(O)c1cccc(O)c1
[4]
  Ki: 25.8 nM

## COc1cccc(C2(O)CCC(N(Cc3ccccc3)S(=O)(=O)c3ccccc3)CC2CN(C)C)c1 (centres undefined)
[1]
  inhibition: 39.7%
[2]
  inhibition: 14.8%
[3]
  inhibition: 0%

## COc1cccc(C2(OC(=O)c3ccccc3)CCC(NS(=O)(=O)c3ccccc3)CC2CN(C)C)c1 (centres undefined)
[1]
  inhibition: 12.9%
[2]
  inhibition: 18.1%
[3]
  inhibition: 0%

## O=C(O)Cc1ccccc1Nc1c(Cl)cccc1Cl [DICLOFENAC]
[5]
  CLint scaled at 1 µM: 116 mL/min/kg
[6]
  half-life at 1 µM: 47.1 min
[7]
  microsomal CLint at 1 µM: 29.4 µL/min/mg

## COc1cccc(C2(O)CCC(N(Cc3ccccc3)S(=O)(=O)c3cccc(Cl)c3)CC2CN(C)C)c1 (centres undefined)
[2]
  inhibition: 6.7%
[3]
  inhibition: 0%

## COc1cccc(C2(O)CCC(NS(=O)(=O)Cc3cccc(Cl)c3)CC2CN(C)C)c1 (centres undefined)
[1]
  inhibition: 6.9%
[2]
  inhibition: 35.8%
[3]
  inhibition: 0%

## COc1cccc(C2(O)CCC(N(Cc3ccccc3)S(=O)(=O)c3cccs3)CC2CN(C)C)c1 (centres undefined)
[1]
  inhibition: 14.9%
[2]
  inhibition: 9.5%
[3]
  inhibition: 0%

## COc1cccc(C2(O)CCC(NS(=O)(=O)c3cccs3)CC2CN(C)C)c1 (centres undefined)
[1]
  inhibition: 15.2%
[2]
  inhibition: 1.2%
[3]
  inhibition: 0%

## COc1cccc(C2(O)CCC(NS(=O)(=O)c3ccccc3)CC2CN(C)C)c1 (centres undefined)
[1]
  inhibition: 7.2%
[2]
  inhibition: 11.8%
[3]
  inhibition: 7.51%

## COc1cccc(C2(O)CCC(NS(=O)(=O)Cc3ccccc3)CC2CN(C)C)c1 (centres undefined)
[1]
  inhibition: 11.2%
[2]
  inhibition: 41.1%
[3]
  inhibition: 1%

## COc1cccc([C@]2(O)CC[C@@H](N(Cc3ccccc3)S(=O)(=O)c3cccc(Cl)c3)C[C@H]2CN(C)C)c1
[8]
  Activity: inactive
[9]
  Activity: inactive

## COc1cccc(C2(OC(=O)c3ccccc3)CCC(N(C)S(=O)(=O)Cc3ccccc3)CC2CN(C)C)c1 (centres undefined)
[1]
  inhibition: 28.8%
[2]
  inhibition: 3.3%
[3]
  inhibition: 0%

## COc1cccc(C2(O)CCC(N(C)S(=O)(=O)c3ccccc3)CC2CN(C)C)c1 (centres undefined)
[1]
  inhibition: 15.3%
[2]
  inhibition: 38.6%
[3]
  inhibition: 12.9%

## CN(C)CC1CC(N(Cc2ccccc2)S(=O)(=O)c2cccc(Cl)c2)CCC1(O)c1cccc(O)c1.Cl (centres undefined)
[10]
  Ki: 201 nM
Mu-type opioid receptor
  Ki: 18.8 nM
[9]
  Ki: 3.1 nM
[3]
  inhibition: 20.7%
[11]
  Drug uptake: Active

## COc1cccc(C2(O)CCC(N(C)S(=O)(=O)c3cccc(Cl)c3)CC2CN(C)C)c1 (centres undefined)
[1]
  inhibition: 22.7%
[2]
  inhibition: 16.5%
[3]
  inhibition: 14.8%

## COc1cccc([C@@]2(O)CC[C@H](N(Cc3ccccc3)S(=O)(=O)c3cccc(Cl)c3)C[C@@H]2CN(C)C)c1.Cl
[5]
  CLint scaled at 1 µM: 1390 mL/min/kg
[12]
  AUC(0-t) at 24 h: 1.34 ng·h/mL
Mus musculus [13]
  Activity: inactive
[14]
  Cmax: 221 ng/mL
[15]
  half-life: 71.4 min
[16]
  Cmax: 3.87 ng/mL
[17]
  remaining at 0.25 h, 1 µM: 6.7%
[18]
  remaining at 5 min, 1 µM: 29%
[19]
  AUC(0-t) at 24 h: 131 ng·h/mL
[20]
  clearance: 246 mL/min/kg
[21]
  Activity: inactive
[6]
  half-life at 1 µM: 3.95 min
[22]
  remaining at 0.5 h, 1 µM: 5.89%
[23]
  remaining at 1 h, 1 µM: 4.59%
[7]
  microsomal CLint at 1 µM: 351 µL/min/mg
[24]
  AUC(0-inf): 136 ng·h/mL
[9]
  Ki: 1.9 nM
[25]
  half-life: 16.2 min
[26]
  bioavailability: 0.53%
[27]
  Tmax: 4.98 min
[28]
  Activity: Non-Toxic
[29]
  Tmax: 4.98 min
[2]
  inhibition: 25.8%
[11]
  Drug uptake: Active
Mus musculus [30]
  ED50: 1.3 mg/kg
[31]
  AUC(0-inf): 1.64 ng·h/mL

## COc1cccc(C2(O)CCC(NS(=O)(=O)c3cccc(Cl)c3)CC2CN(C)C)c1 (centres undefined)
[1]
  inhibition: 15%
[2]
  inhibition: 22.8%
[3]
  inhibition: 0%

## COc1cccc(C2(OC(=O)c3ccccc3)CCC(NS(=O)(=O)c3cccc(Cl)c3)CC2CN(C)C)c1 (centres undefined)
[1]
  inhibition: 30.5%
[2]
  inhibition: 14.4%
[3]
  inhibition: 0%

## COc1cccc(C2(O)CCC(N(C)S(=O)(=O)c3cccs3)CC2CN(C)C)c1 (centres undefined)
[1]
  inhibition: 22%
[2]
  inhibition: 0%
[3]
  inhibition: 30.1%

## COc1cccc(C2(O)CCCCC2CN(C)C)c1 (centres undefined)
[1]
  inhibition: 0%
[2]
  inhibition: 6%
[3]
  inhibition: 0%
